Starred links: 1 amine or outer side, 2 acyl side, 3 side chain; linkers in the order of their positions; H or OH if unused. Positions of bridges follow the written chain, without caps; N, C: chain ends. Residues, ends and D or L forms follow the SMILES beside them. Groups on a side chain read outwards from the residue. *: point of attachment. C20 diacid = O=C(O)CCCCCCCCCCCCCCCCCCC(=O)*; C18 diacid = O=C(O)CCCCCCCCCCCCCCCCC(=O)*; γGlu = O=C(O)[C@H](CCC(=O)[*:2])N[*:1]; AEEA = NCCOCCOCC(=O)O
Key:
[1] = Assay (III) ThT fibrillation assay for physical stability; format: physicochemical; conditions: pH 4.0, ThT fibrillation assay
Summary of the method: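 Freshly prepared, pH-adjusted formulations with 1 μM ThT incubated at 37 °C under 960 rpm orbital shaking (1 mm), fluorescence (ex 444, em 485 nm) read every 20 min. […] Peptide content before and after measured by reverse-phase HPLC against pramlintide standard.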

ad libitum fed rat = test: Assay (I) efficacy testing on appetite (food intake) using an ad libitum fed rat model; format: in vivo, Sprague Dawley (SD) rats
Summary of the method: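 Ad libitum fed Sprague Dawley rats, 200-250 g, singly housed on reversed light cycle, got one ip, po or sc dose of 0.01-3 mg/kg just before lights off; groups of 5-8 with vehicle control. Food intake recorded hourly for 7 h, then at 24 h and sometimes 48 h; Grubbs outliers excluded.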

ThT pH 4.0 lag time [1] [h]	SMILES	Food intake reduction 0-24 h 3 nmol/kg (%) (ad libitum fed rat; 0-24 h)	Food intake reduction 24-48 h 3 nmol/kg (%) (ad libitum fed rat; 24-48 h)	Food intake reduction 0-24 h 30 nmol/kg (%) (ad libitum fed rat; 30 nmol/kg, 0-24 h)	Food intake reduction 24-48 h 30 nmol/kg (%) (ad libitum fed rat; 30 nmol/kg, 24-48 h)
37	CC[C@H](C)[C@H](NC(=O)[C@@H]1CCCN1C(=O)CNC(=O)[C@H](Cc1ccccc1)NC(=O)[C@H](CC(N)=O)NC(=O)[C@H](CC(N)=O)NC(=O)[C@H](CO)NC(=O)[C@H](CO)NC(=O)[C@H](Cc1c[nH]cn1)NC(=O)[C@H](Cc1c[nH]cn1)NC(=O)[C@H](CC(C)C)NC(=O)[C@H](Cc1ccccc1)NC(=O)[C@H](CCC(=O)O)NC(=O)[C@H](C)NC(=O)[C@H](CC(C)C)NC(=O)[C@H](CCCNC(=N)N)NC(=O)[C@H](CCC(N)=O)NC(=O)[C@@H](NC(=O)[C@H](C)NC(=O)[C@@H]1CSSC[C@H](NC(=O)[C@H](CCCCN)NC(=O)CC[C@H](NC(=O)CCCCCCCCCCCCCCCCCCC(=O)O)C(=O)O)C(=O)N[C@@H](CC(N)=O)C(=O)N[C@@H]([C@@H](C)O)C(=O)N[C@@H](C)C(=O)N[C@@H]([C@@H](C)O)C(=O)N1)[C@@H](C)O)C(=O)N[C@@H](CC(C)C)C(=O)N1CCC[C@H]1C(=O)N1CCC[C@H]1C(=O)N[C@H](C(=O)N[C@@H](CC(N)=O)C(=O)N[C@H](C(=O)NCC(=O)N[C@@H](CO)C(=O)N[C@@H](Cc1c[nH]cn1)C(=O)N[C@H](C(=O)N[C@@H](Cc1ccc(O)cc1)C(N)=O)[C@@H](C)O)C(C)C)[C@@H](C)O [Example 55, N-alpha-[(S)-4-Carboxy-4-(19-carboxynonadecanoylamino)butyryl]-[Glu14,His17,His35]-pramlintide] ({C20 diacid-γGlu}-KCNTATCATQRLAEFLHHSSNNFGPILPPTNVGSHTY-NH2; disulfide 2-7 (inferred))	58	40	88	90
>45	CC[C@H](C)[C@H](NC(=O)[C@H](CCCCNC(=O)COCCOCCNC(=O)COCCOCCNC(=O)CC[C@H](NC(=O)CCCCCCCCCCCCCCCCC(=O)O)C(=O)O)NC(=O)CNC(=O)[C@H](Cc1ccccc1)NC(=O)[C@H](CC(N)=O)NC(=O)[C@H](CC(N)=O)NC(=O)[C@H](CO)NC(=O)[C@H](CO)NC(=O)[C@H](Cc1c[nH]cn1)NC(=O)[C@H](Cc1c[nH]cn1)NC(=O)[C@H](CC(C)C)NC(=O)[C@H](Cc1ccccc1)NC(=O)[C@H](CCC(=O)O)NC(=O)[C@H](C)NC(=O)[C@H](CC(C)C)NC(=O)[C@H](CCCNC(=N)N)NC(=O)[C@H](CCC(N)=O)NC(=O)[C@@H](NC(=O)[C@H](C)NC(=O)[C@@H]1CSSC[C@H](NC(=O)[C@@H](N)CCCCN)C(=O)N[C@@H](CC(N)=O)C(=O)N[C@@H]([C@@H](C)O)C(=O)N[C@@H](C)C(=O)N[C@@H]([C@@H](C)O)C(=O)N1)[C@@H](C)O)C(=O)N[C@@H](CC(C)C)C(=O)N1CCC[C@H]1C(=O)N1CCC[C@H]1C(=O)N[C@H](C(=O)N[C@@H](CC(N)=O)C(=O)N[C@H](C(=O)NCC(=O)N[C@@H](CO)C(=O)N[C@@H](CC(N)=O)C(=O)N[C@H](C(=O)N[C@@H](Cc1ccc(O)cc1)C(N)=O)[C@@H](C)O)C(C)C)[C@@H](C)O [Example 73, N-epsilon25-[2-(2-{2-[2-(2-{2-[(S)-4-Carboxy-4-(17-carboxyheptadecanoylamino)butyrylamino]ethoxy}ethoxy)acetylamino]ethoxy}ethoxy)acetyl]-[Glu14,His17,Lys25]-pramlintide] (H-KCNTATCATQRLAEFLHHSSNNFGK([AEEA-AEEA-γGlu-C18 diacid])ILPPTNVGSNTY-NH2; disulfide 2-7; N-terminus assumed)	29	2		
>45	CC[C@H](C)[C@H](NC(=O)[C@@H]1CCCN1C(=O)CNC(=O)[C@H](Cc1ccccc1)NC(=O)[C@H](CC(N)=O)NC(=O)[C@H](CC(N)=O)NC(=O)[C@H](CO)NC(=O)[C@H](CO)NC(=O)[C@H](Cc1c[nH]cn1)NC(=O)[C@H](CCCNC(=N)N)NC(=O)[C@H](CC(C)C)NC(=O)[C@H](Cc1ccccc1)NC(=O)[C@H](CCC(=O)O)NC(=O)[C@H](C)NC(=O)[C@H](CC(C)C)NC(=O)[C@H](CCCNC(=N)N)NC(=O)[C@H](CCC(N)=O)NC(=O)[C@@H](NC(=O)[C@H](C)NC(=O)[C@@H]1CSSC[C@H](NC(=O)[C@H](CCCCN)NC(=O)[C@H](Cc2c[nH]cn2)NC(=O)CC[C@H](NC(=O)CCCCCCCCCCCCCCCCC(=O)O)C(=O)O)C(=O)N[C@@H](CC(N)=O)C(=O)N[C@@H]([C@@H](C)O)C(=O)N[C@@H](C)C(=O)N[C@@H]([C@@H](C)O)C(=O)N1)[C@@H](C)O)C(=O)N[C@@H](CC(C)C)C(=O)N1CCC[C@H]1C(=O)N1CCC[C@H]1C(=O)N[C@H](C(=O)N[C@@H](CC(N)=O)C(=O)N[C@H](C(=O)NCC(=O)N[C@@H](CO)C(=O)N[C@@H](Cc1c[nH]cn1)C(=O)N[C@H](C(=O)N[C@@H](Cc1ccc(O)cc1)C(N)=O)[C@@H](C)O)C(C)C)[C@@H](C)O [Example 71, N-alpha-[(S)-4-Carboxy-4-(17-carboxyheptadecanoylamino)butyryl]-His-[Glu14,Arg17,His35]-pramlintide] ({C18 diacid-γGlu}-HKCNTATCATQRLAEFLRHSSNNFGPILPPTNVGSHTY-NH2; disulfide 3-8 (inferred))	10	0		

— patent publication US8741836B2, “Polypeptides” (Novo Nordisk A/S, priority 2011, dated 2014)
